Earlier results as cited in patent US20130115640A1, “ACTH for Treatment of Kidney Disease” (priority 2011, published 2013).

Tested on: TGF-β
Conditions: Losartan 50 mg, 4 weeks, type II diabetes and microalbuminuria

Structure (SMILES): CCCCc1nc(Cl)c(CO)n1Cc1ccc(-c2ccccc2-c2nn[nH]n2)cc1 [Losartan]
- plasma TGF-β levels: not altered
- urinary TGF-β levels: significantly reduced
